Measurements taken from patent US6288056A, “Intermittent claudication therapeutic drugs comprising pyrroloazepines” (Suntory Limited, priority 1999, dated 2001).
Like-named read-outs stand apart in the source and are kept apart here.

Experiments:
Pulmonary artery = assay: Relaxation of vasoconstriction induced by supernatant of aggregated platelets, pulmonary artery; parameters: species or system male Japanese white rabbit; settings: Oryctolagus cuniculus, aggregated platelet supernatant 1/100-fold dilution, read-out: EC50 (50% relaxation)
Description: (§1) After a male Japanese white rabbit was anesthetized by intramuscular administration of ketamine (product of sankyo Company, Limited) at 50 mg/kg, a polyethylene-made catheter ["PE240" (trade name), manufactured by Becton Dickinson Co., Ltd.] was inserted into a carotid artery, and the blood was collected with a tube containing a 1/10 volume of a 3.8% aqueous solution of sodium citrate [NACALAI TESQUE, Inc.]. The blood so collected was centrifuged at 90 g (900 rpm) for 15 minutes ["05PR-22" (trade name), manufactured by Hitachi Koki Co., Ltd.] and platelet-rich plasma (PRP) was collected from the upper layer.
(§2) After addition of an equiamount of buffer A (25 mM Tris-HCl, 130 mM NaCl, 1.5 mM EDTA, pH 7.4), to PRP, the mixture was centrifuged at 4° C. and 1,500 g (3,000 rpm) for 10 minutes. The thus-obtained platelet pellet was suspended again in buffer A, followed by centrifugation at 4° C. and 1,500 g (3,000 rpm) for 5 minutes. The resulting platelet pellet was suspended again in buffer B (25 mM Tris-HCl, 130 mM NaCl, 0.3 mM EDTA, pH 7.4), followed by centrifugation under the same conditions. […]
(§3) After the vascular strip preparations had been left over for about 1 hour and their resting tensions had been confirmed to become stable, the tonicities of the vascular strip preparations were measured using the isometric transducers. […]

Coronary artery = assay: Relaxation of vasoconstriction induced by supernatant of aggregated platelets, coronary artery; parameters: species or system male Japanese white rabbit; settings: Oryctolagus cuniculus, aggregated platelet supernatant 1/100-fold dilution, read-out: EC50 (50% relaxation)
Description: as §1, §2, §3

Renal artery = assay: Relaxation of vasoconstriction induced by supernatant of aggregated platelets, renal artery; parameters: species or system male Japanese white rabbit; settings: Oryctolagus cuniculus, aggregated platelet supernatant 1/100-fold dilution, read-out: EC50 (50% relaxation)
Description: as §1, §2, §3

Femoral artery = assay: Relaxation of vasoconstriction induced by supernatant of aggregated platelets, femoral artery; parameters: species or system male Japanese white rabbit; settings: Oryctolagus cuniculus, aggregated platelet supernatant 1/100-fold dilution, read-out: EC50 (50% relaxation)
Description: as §1, §2, §3

Mesenteric artery = assay: Relaxation of vasoconstriction induced by supernatant of aggregated platelets, mesenteric artery; parameters: species or system male Japanese white rabbit; settings: Oryctolagus cuniculus, aggregated platelet supernatant 1/100-fold dilution, read-out: EC50 (50% relaxation)
Description: as §1, §2, §3

Basilar artery = assay: Relaxation of vasoconstriction induced by supernatant of aggregated platelets, basilar artery; parameters: species or system male Japanese white rabbit; settings: Oryctolagus cuniculus, aggregated platelet supernatant 1/100-fold dilution, read-out: EC50 (50% relaxation)
Description: as §1, §2, §3

[1] = tested on: pulmonary thromboembolic death; assay: Inhibitory Action in Mouse Pulmonary Thromboembolic Death; type: in vivo, male ddY mice; settings: 3 mg/kg oral; within 10 minutes after injection of collagen 1 mg/kg and serotonin hydrochloride 5 mg/kg
Description: Male ddY mice which ranged in age from 4 to 5 weeks were used after fasted overnight. Suspensions of Compounds a-c, which will be specified subsequently herein, in a 0.5% aqueous solution of carboxymethylcellulose sodium were orally administered at 3 mg/kg.
After 1 hour, collagen [1 mg/kg, "Collagenreagent Form" (trade name), product of Moriya Sangyo Co., Ltd.] and serotonin hydrochloride (5 mg/kg, product of Sigma Chemical Co.) were injected through the candal veins.
An investigation was made for mortality rates of mice within 10 minutes after the injection.

[2] = tested on: platelet aggregation (platelet-rich plasma); assay: Inhibitory Effect on Canine Platelet Aggregation (ex vivo after oral administration, collagen + serotonin); type: in vivo, canine (male beagles); settings: Canis lupus familiaris, 0.1 mg/kg oral, collagen + serotonin 1 μM, read-out: Aggregation inhibition rate
Description: Four male beagles which ranged in age from 17 to 19 months were used after fasted overnight. A suspension of (-)-(S)-5-[3-[4-(4-fluorophenyl)piperazin-1-yl]propyl]-8-hydroxy-1-methyl- 1,4,5,6,7,8-hexahydropyrrolo[3,2-c]azepin-4-one (test compound a) in a 0.5% aqueous solution of carboxymethylcellulose sodium salt was orally administered at 0.1 mg/kg. Before the administration of the test compound and after elapsed times of 1, 2, 4 and 6 hours from the administration, blood samples were collected from the foreleg veins. The blood was sampled using syringes containing a 1/10 volume of a 3.8% aqueous solution of sodium citrate ["cytorate for ESR Measurement" (trade name), product of The Green Cross Corp.].
Each collected blood sample was centrifuged at room temperature and 190 g for 7 minutes, and the upper layer, platelet-rich plasma (PRP), was collected. The remaining blood was centrifuged at 1,500 g for 10 minutes, and the upper layer, platelet-poor plasma (PPP), was collected. Using collagen [final concentration: 0.03 to 5 μg/ml, "Collagenreagent Form" (trade name), product of Moriya Sangyo Co., Ltd.] and serotonin (final concentration: 1 μM, serotonin hydrochloride, product of Sigma Chemical Co.) as a platelet proaggrecant, the platelet aggregating ability was measured by the Born turbidimetry. Specifically, using PPP as a control, a solution of calcium chloride (product of NACALAI TESQUE, INC.) was added to PRP at 37° C. to give a final concentration of 1 mM. After 2 minutes, the proaggrecant was added. Variations in transmittance, which took place in the course of subsequent 10 minutes, were measured using a platelet aggregometer measuring instrument ["PAM-8C" (trade name), manufactured by MEBANCS, INC.], and its maximum value was recorded as a platelet aggregation rate (%). […] As an aggregation inhibition rate, the proportion of an aggregation rate after the administration of the test compound relative to an aggregation rate before the administration of the test compound was shown in percentage.

[3] = tested on: gastrocnemius-plantaris-sole muscle (GPS muscle); assay: Test in Rat Intermittent Claudication Model (muscle contraction force after collagen infusion); type: in vivo, male Wistar rats; settings: 20 minutes after collagen infusion
Description: Based on the methods proposed by Angersbach, D. et al. in Int. J. Microcirc. Clin. Exp., 7, 15-30 (1988) and by Loots, W. et al. in Am. J. Physiol. 265, H158-H164 (1993), an intermittent claudication model was designed as will be described next. Firstly, male Wistar rats which ranged in age from 9 to 10 weeks were ligated at right femoral arteries under anesthesia with pentobanbital [40 mg/kg, intraperitoneal administration, "Nembutal Injection" (trademark), product of Dainabot Co., Ltd.] and were fed for 1 week. After fasted overnight, a suspension of (-)-(S)-5-[3-[4-(4-fluorophenyl)piperazin-1-yl]propyl]-8-hydroxy-1-methyl- 1,4,5,6,7,8-hexahydropyrrolo[3,2-c]azepin-4-one (test compound a) in a 0.5% aqueous solution of carboxymethylcellulose sodium salt was orally administered at 1, 3 and 10 mg/kg, respectively.
After an elapsed time of 60 minutes since the administration, each rat was subjected to anesthetization with urethan ([…], intraperitoneal administration, product of Sigma Chemical Co.) and α-chloralose ([…], intraperitoneal administration, product of NACALAI TESQUE, INC.). To administer collagen into artery, a cannula ["SP-31" (trade name), manufactured by Natsume Seisakusho Co., Ltd.] was inserted through the left carotid artery such that its leading end was located on a proximal side of the branching point of the iliac artery. Thereafter, the rat was held in a prone position, and the skin of the right hind leg was flayed to expose the gastrocnemius-plantaris-sole muscle (GPS muscle). The Achilles tendon was bound and cut off, connected to an isometric tension meter ["CBE-1 10 kg" (trade name), manufactured by MINEBEA Co., Ltd.], and then held in place with a resting tension of about 100 g. […] Contraction force produced upon electric stimulation was recorded [amplifier: "AP-620G" (trade name), manufactured by Nihon Kohden Corporation, recorder: "WT-645G" (trade name), manufactured by Nihon Kohden Corporation]. […]

| SMILES | EC50 (Pulmonary artery) [nM] | EC50 (Coronary artery) [nM] | EC50 (Renal artery) [nM] | EC50 (Femoral artery) [nM] | EC50 (Mesenteric artery) [nM] | EC50 (Basilar artery) [nM] | Mortality rate [1] [%] | inhibition at 0.1 mg/kg ([2]; 1 hr after administration) [%] | inhibition at 0.1 mg/kg ([2]; 2 hr after administration) [%] | inhibition at 0.1 mg/kg ([2]; 4 hr after administration) [%] | inhibition at 0.1 mg/kg ([2]; 6 hr after administration) [%] | Contraction force ([3]; 1 mg/kg oral) [g] | Contraction force ([3]; 3 mg/kg oral) [g] | Contraction force ([3]; 10 mg/kg oral) [g] |
| --- | --- | --- | --- | --- | --- | --- | --- | --- | --- | --- | --- | --- | --- | --- |
| Cn1ccc2c1[C@@H](O)CCN(CCCN1CCN(c3ccc(F)cc3)CC1)C2=O [Compound a, (-)-(S)-5-[3-[4-(4-fluorophenyl)piperazin-1-yl]propyl]-8-hydroxy-1-methyl-1,4,5,6,7,8-hexahydropyrrolo[3,2-c]azepin-4-one] | 14 ± 3 | 254 ± 54 | 246 ± 79 | 328 ± 112 | 32 ± 22 | 138 ± 55 | 10 | 99.7 ± 0.3 | 99.8 ± 0.2 | 99.3 ± 0.7 | 72.5 ± 16.1 | 93 ± 17 | 116 ± 15 | 122 ± 10 |
| Cc1cn(C)c2c1C(=O)N(CCCN1CCN(c3ccc(F)cc3)CC1)CCC2O (stereo not shown) [Compound c, 5-[3-[4-(4-fluorophenyl)piperazin-1-yl]propyl]-8-hydroxy-1,3-dimethyl-1,4,5,6,7,8-hexahydropyrrolo[3,2-c]azepin-4-one] | – | – | – | – | – | – | 30 | – | – | – | – | – | – | – |
| Cn1ccc2c1C(O)CCN(CCCN1CCN(c3ccc(F)cc3)CC1)C2=O (racemic) [Compound b, (±)-5-[3-[4-(4-fluorophenyl)piperazin-1-yl]propyl]-8-hydroxy-1-methyl-1,4,5,6,7,8-hexahydropyrrolo[3,2-c]azepin-4-one] | – | – | – | – | – | – | 25 | – | – | – | – | – | – | – |
